Patent publication US20230339851A1, “CXCR6 SULFONAMIDE COMPOUNDS” (CHEMOCENTRYX, INC., priority 2022, published 2023)

These compounds were tested against T1, human CXCR6 (Homo sapiens, UniProt O00574) (assay: Radioligand Binding Assay (125I-CXCL16 displacement)). Conditions: L1.2 cells stably transfected with human CXCR6 cDNA, 0.1 nM 125I-CXCL16, 4° C., three-hour incubation; read-out: Potency (IC50).
T1 construct: expressed in transfected cells
Protocol: L1.2 cells stably transfected with human CXCR6 cDNA ([…]) were incubated at 4° C. in HBSS containing 0.1 % BSA and 0.1 nM of ^125I-CXCL16 plus various concentrations of Compound. Following a three-hour incubation period, cells were aspirated onto polyethyleneimine-treated GF/B glass fiber filters (PerkinElmer, Waltham, MA) with a cell harvester (Tomtec, Hamden, CT) and washed twice with washing buffer (25 mM Hepes, 500 mM NaCl, 1 mM CaCI2, 5 mM MgCI2, pH 7.1). Fifty µl of MicroScint-20 (PerkinElmer, Waltham, MA) was added to each well of the filters, and radioactive emissions (cpm) were measured on a Packard TopCount Scintillation counter (PerkinElmer, Waltham, MA). IC50 values were calculated with GraphPad Prism using 3 parameter nonlinear regression. […]

T1 sequence (O00574 whole entry): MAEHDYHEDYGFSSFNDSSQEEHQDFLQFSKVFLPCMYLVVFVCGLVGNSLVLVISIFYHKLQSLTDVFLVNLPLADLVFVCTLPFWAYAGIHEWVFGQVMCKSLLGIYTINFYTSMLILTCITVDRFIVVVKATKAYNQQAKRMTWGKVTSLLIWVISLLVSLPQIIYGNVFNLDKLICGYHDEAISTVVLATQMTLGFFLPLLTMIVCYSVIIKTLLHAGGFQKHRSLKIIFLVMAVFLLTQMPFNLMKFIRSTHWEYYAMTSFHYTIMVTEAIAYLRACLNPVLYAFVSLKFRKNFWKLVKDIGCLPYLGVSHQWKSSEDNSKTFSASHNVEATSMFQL

Compound	IC50 [nM]
CCOc1cc(NC(=O)[C@@H](O)C(C)C)ccc1S(=O)(=O)Nc1ccc(F)c(C(F)(F)F)c1 [Example 1.084]	≤ 200
CCOc1cc(NC(=O)[C@H]2[C@H](C)COC[C@@H]2C)ccc1S(=O)(=O)Nc1cccc(OC(F)(F)F)c1 [Example 1.305]	≤ 200
CCOc1cc(NC(=O)[C@@H]2COC[C@@H]2O)ccc1S(=O)(=O)Nc1cccc(OC(F)(F)F)c1 (racemic) [Example 1.010]	200 to 750
CCOc1cc(NC(=O)[C@H]2CC(C)=C(C)C[C@@H]2C(=O)O)ccc1S(=O)(=O)Nc1cccc(OC(F)(F)F)c1 [Example 1.096]	≤ 200
CCOc1cc(NC(=O)[C@@H](NC(=O)OC(C)(C)C)C(C)O)ccc1S(=O)(=O)Nc1cccc(OC(F)(F)F)c1 (some centres unmarked) [Example 1.020]	750 to 2000
CCOc1cc(NC(=O)[C@@H](CO)c2ccccc2)ccc1S(=O)(=O)Nc1cccc(C(C)(C)O)c1 [Example 1.270]	2000 to 20000
COc1cc(NC(=O)CC(C)(C)O)ccc1S(=O)(=O)Nc1cccc(C(F)(F)F)c1 [Example 1.122]	2000 to 20000
COc1cc(NC(=O)c2ccnn2C)ccc1S(=O)(=O)Nc1ccc(C)c(C(F)(F)F)c1 [Example 1.552]	≤ 200
COc1cc(NC(=O)CC2CCCCC2)ccc1S(=O)(=O)Nc1cccc(C(F)(F)F)c1 [Example 1.344]	≤ 200
CCOc1cc(NC(=O)[C@@H](CO)C(C)C)ccc1S(=O)(=O)Nc1ccc2c(c1)OC(F)(F)O2 [Example 1.050]	200 to 750
COc1cc(NC(=O)CC2CCOC2)ccc1S(=O)(=O)Nc1cccc(C(F)(F)F)c1 (centres unmarked) [Example 1.526]	2000 to 20000
CCOc1cc(NC(=O)c2ccn(C)c(=O)c2)ccc1S(=O)(=O)Nc1cccc(OC(F)(F)F)c1 [Example 1.110]	≤ 200
C=CC(=O)Nc1ccc(S(=O)(=O)Nc2cccc(OC(F)(F)F)c2)c(OCC)c1 [Example 1.583]	200 to 750
CCOc1cc(NC(=O)[C@@H](O)c2ccccc2F)ccc1S(=O)(=O)Nc1cccc(OC(F)(F)F)c1 [Example 1.329]	≤ 200
CC(C)Oc1cc(NC(=O)c2ccnn2C)ccc1S(=O)(=O)Nc1cccc(C(F)(F)F)c1 [Example 1.317]	2000 to 20000
CCOc1cc(NC(=O)C(O)c2ccc3c(c2)OCO3)ccc1S(=O)(=O)Nc1cccc(OC(F)(F)F)c1 (centres unmarked) [Example 1.091]	200 to 750
CCOc1cc(NC(=O)[C@@H](CO)C(C)C)ccc1S(=O)(=O)Nc1ccc(C)c(C(F)(F)F)c1 [Example 1.102]	≤ 200
O=C(Nc1ccc(S(=O)(=O)Nc2cccc(OC(F)(F)F)c2)c(F)c1)C(CO)c1ccccc1 (centres unmarked) [Example 1.395]	750 to 2000
CCOc1cc(NC(=O)[C@@H](CO)C2CC2)ccc1S(=O)(=O)Nc1ccc(CC)c(C)c1 [Example 1.135]	≤ 200
CCOc1cc(NC(=O)C2CC3C=CC2O3)ccc1S(=O)(=O)Nc1cccc(OC(F)(F)F)c1 (centres unmarked) [Example 1.046]	200 to 750
Cn1nccc1C(=O)Nc1ccc(S(=O)(=O)Nc2cccc(C(F)(F)F)c2)c(Cl)c1 [Example 1.141]	200 to 750

Compound	IC50 [nM]
CCCc1cc(NC(=O)[C@@H](O)C(C)C)ccc1S(=O)(=O)Nc1cccc(OC(F)(F)F)c1 [Example 1.071]	≤ 200
CCOc1cc(NC(=O)[C@@H](O)C(C)C)ccc1S(=O)(=O)Nc1cccc(Cl)c1C [Example 1.570]	750 to 2000
COc1cc(NC(=O)c2ccnn2C)ccc1S(=O)(=O)Nc1cccc(OC(C)C)c1 [Example 1.145]	750 to 2000
CCOc1cc(NC(=O)[C@@H](CO)C(C)C)ccc1S(=O)(=O)Nc1ccc(OC)c(C(F)(F)F)c1 [Example 1.005]	≤ 200
CCc1cc(NC(=O)[C@@H](CO)C2CC2)ccc1S(=O)(=O)Nc1cccc(OC(F)(F)F)c1 [Example 1.150]	≤ 200
CCOc1cc(NC(=O)[C@@H](CO)C(C)C)ccc1S(=O)(=O)Nc1cccc(C(C)(F)F)c1 [Example 1.181]	≤ 200
CCOc1cc(NC(=O)c2cc(=O)n(C)cc2C)ccc1S(=O)(=O)Nc1cccc(OC(F)(F)F)c1 [Example 1.126]	≤ 200
N#Cc1cc(NC(=O)[C@@H](CO)c2ccccc2)ccc1S(=O)(=O)Nc1cccc(OC(F)(F)F)c1 [Example 1.024]	≤ 200
COc1cc(NC(=O)c2ccnn2C)ccc1S(=O)(=O)Nc1cccc(C(F)(F)F)c1 [Example 1.153]	200 to 750
CCc1cc(NC(=O)[C@@H](CO)C(C)C)ccc1S(=O)(=O)Nc1cccc(OC(F)(F)F)c1 [Example 1.201]	≤ 200
Cc1cc(NC(=O)c2nccn2C)ccc1S(=O)(=O)Nc1cccc(C(F)(F)F)c1 [Example 1.116]	2000 to 20000
CCOc1cc(NC(=O)C(CCO)C(F)(F)F)ccc1S(=O)(=O)Nc1cccc(OC(F)(F)F)c1 (centres unmarked) [Example 1.335]	≤ 200
CCOc1cc(NC(=O)c2ccnnc2)ccc1S(=O)(=O)Nc1cccc(OC(F)(F)F)c1 [Example 1.530]	≤ 200
COc1cc(NC(=O)[C@@H](O)C(C)C)ccc1S(=O)(=O)Nc1cccc(OC(F)(F)F)c1 [Example 1.438]	≤ 200
CCOc1cc(NC(=O)CC(O)CC2CCOCC2)ccc1S(=O)(=O)Nc1cccc(OC(F)(F)F)c1 (centres unmarked) [Example 1.131]	2000 to 20000
CCOc1cc(NC(=O)C2CCN(C(=O)OC(C)(C)C)CC2)ccc1S(=O)(=O)Nc1cccc(OC(F)(F)F)c1 [Example 1.433]	2000 to 20000
CCOc1cc(NC(=O)C2COCCO2)ccc1S(=O)(=O)Nc1cccc(OC(F)(F)F)c1 (centres unmarked) [Example 1.282]	750 to 2000
CCOc1cc(NC(=O)[C@@H](CO)c2ccccc2)ccc1S(=O)(=O)Nc1ccc(Cl)c(OC)c1 [Example 1.550]	200 to 750
CCOc1cc(NC(=O)[C@@H](NC(N)=O)C(C)C)ccc1S(=O)(=O)Nc1cccc(OC(F)(F)F)c1 [Example 1.334]	≤ 200
Cc1cc(NC(=O)c2ccno2)ccc1S(=O)(=O)Nc1cccc(C(F)(F)F)c1 [Example 1.067]	200 to 750
CCOc1cc(NC(=O)c2ccns2)ccc1S(=O)(=O)Nc1cccc(C(F)(F)F)c1 [Example 1.567]	≤ 200

Now from value to compound:

IC50 [nM]	Compound
≤ 200	CCOc1cc(NC(=O)C(CO)CCC(C)C)ccc1S(=O)(=O)Nc1cccc(OC(F)(F)F)c1 (centres unmarked) [Example 1.128]
200 to 750	CCOc1cc(NC(=O)[C@@H](O)C(C)C)ccc1S(=O)(=O)Nc1cccc(OC(C)C)c1 [Example 1.074]
≤ 200	CCOc1cc(NC(=O)[C@@H](CO)c2ccccc2)ccc1S(=O)(=O)Nc1cccc(C(C)(C)C)c1 [Example 1.170]
2000 to 20000	CC(=O)Nc1ccc(S(=O)(=O)Nc2cccc(C(F)(F)F)c2)c(Br)c1 [Example 1.130]
750 to 2000	CCOc1cc(NC(=O)C2(O)CCCCC2)ccc1S(=O)(=O)Nc1cccc(OC(F)(F)F)c1 [Example 1.083]
≤ 200	Cc1cc(NC(=O)[C@@H](CO)C2CC2)ccc1S(=O)(=O)Nc1cccc(OC(F)(F)F)c1 [Example 1.079]
200 to 750	CCOc1cc(NC(=O)C2CCC[C@H]2O)ccc1S(=O)(=O)Nc1cccc(OC(F)(F)F)c1 (some centres unmarked) [Example 1.468]
200 to 750	Cc1cc(NC(=O)[C@@H](O)c2ccccc2)ccc1S(=O)(=O)Nc1cccc(OC(F)(F)F)c1 [Example 1.266]
≤ 200	CCOc1cc(NC(=O)[C@@H](CO)C2CC2)ccc1S(=O)(=O)Nc1cccc(C(C)C)c1 [Example 1.025]
200 to 750	CCOc1cc(NC(=O)[C@H](O)c2ccccc2)ccc1S(=O)(=O)Nc1cccc(OC(F)(F)F)c1 [Example 1.547]
200 to 750	CCOc1cc(NC(=O)C2CCOCC2(C)C)ccc1S(=O)(=O)Nc1cccc(OC(F)(F)F)c1 (centres unmarked) [Example 1.215]
750 to 2000	CCOc1cc(NC(=O)CC(O)C2CCCOC2)ccc1S(=O)(=O)Nc1cccc(OC(F)(F)F)c1 (centres unmarked) [Example 1.230]
≤ 200	CCOc1cc(NC(=O)[C@@H](CO)c2ccccc2)ccc1S(=O)(=O)Nc1ccc(C)c(C(C)C)c1 [Example 1.439]
≤ 200	COCc1cc(NC(=O)[C@@H](CO)c2ccccc2)ccc1S(=O)(=O)Nc1cccc(OC(F)(F)F)c1 [Example 1.143]
2000 to 20000	CCOc1cc(NC(=O)C2CCN(C(C)=O)CC2)ccc1S(=O)(=O)Nc1cccc(OC(F)(F)F)c1 [Example 1.161]
200 to 750	CCOc1cc(NC(=O)[C@@H](O)C(C)C)ccc1S(=O)(=O)Nc1ccc(C)c(F)c1 [Example 1.195]
750 to 2000	CCOc1cc(NC(=O)c2ccc(=O)n(C)c2)ccc1S(=O)(=O)Nc1cccc(OC(F)(F)F)c1 [Example 1.515]
≤ 200	CCOc1cc(NC(=O)[C@@H](N)C(C)C)ccc1S(=O)(=O)Nc1cccc(OC(F)(F)F)c1 [Example 1.454]
≤ 200	CC(C)[C@H](O)C(=O)Nc1ccc(S(=O)(=O)Nc2cccc(OC(F)(F)F)c2)c(Cl)c1 [Example 1.078]
≤ 200	CCOc1cc(NC(=O)C(C)(O)c2ccccc2)ccc1S(=O)(=O)Nc1cccc(OC(F)(F)F)c1 (centres unmarked) [Example 1.095]
2000 to 20000	CCOc1cc(NC(=O)[C@@H](CO)C(C)C)ccc1S(=O)(=O)Nc1cccc(Cl)c1C(F)(F)F [Example 1.159]
750 to 2000	COc1cc(NC(=O)C2CCCCO2)ccc1S(=O)(=O)Nc1cccc(C(F)(F)F)c1 (centres unmarked) [Example 1.572]
2000 to 20000	COCCC(=O)Nc1ccc(S(=O)(=O)Nc2cccc(C(F)(F)F)c2)c(OC)c1 [Example 1.423]
≤ 200	CCOc1cc(NC(=O)C2CC=CC[C@@H]2O)ccc1S(=O)(=O)Nc1ccc(C)c(OC(F)(F)F)c1 (some centres unmarked) [Example 1.172]
≤ 200	CCOc1cc(NC(=O)[C@@H](O)C2CCCCC2)ccc1S(=O)(=O)Nc1cccc(OC(F)(F)F)c1 [Example 1.345]
750 to 2000	CCOc1cc(NC(=O)C2CCCC(O)C2)ccc1S(=O)(=O)Nc1cccc(OC(F)(F)F)c1 (centres unmarked) [Example 1.545]
